Measurements from patent US10285983B2, “3-(1H-pyrrolo[2,3-B]pyridin-2-yl)-1H-pyrazolo[3,4-B] pyridines and therapeutic uses thereof” (Samumed, LLC, priority 2015, dated 2019).

Columns and labels:
[1] = system: Wnt activity (Sp5-Luc reporter, SW480 colon carcinoma cells); test: Wnt activity screening assay, Sp5-Luc reporter gene in SW480 cells; type: cell-based; conditions: Homo sapiens; for inhibition at 10 µM: given for EC50 >10 μM, read-out: percent inhibition at 10 μM; for EC50: overnight incubation
In short: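 SW480 colon carcinoma cells stably expressing firefly luciferase under a human Sp5 promoter (eight TCF/LEF sites), plated in 1% FBS medium. 10-point 1:3 dilutions from 10 μM, 0.1% DMSO final, overnight at 37 °C; luminescence normalized to DMSO, four-parameter fit for EC50, % inhibition at 10 μM if EC50 >10 μM.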

[2] = system: primary human mesenchymal stem cells (hMSCs); test: Chondrogenesis induction in hMSCs (nodule count, Rhodamine B/Nile Red); type: cell-based; conditions: 144 h, 6 days; for Emax: relative to TGF-β3 (10 ng/mL) positive control, read-out: Max. Activity as % TGF-β3 activity; for EC50: concentration required to induce 50% levels of chondrogenesis vs TGF-β3, read-out: Conc (nM) of 50% TGF-β3 activity
Experimental: Representative compounds were screened using primary human mesenchymal stem cells (hMSCs) to determine their ability to induce chondrogenesis (process by which cartilage is developed).
Primary human mesenchymal stem cells (hMSCs) were purchased from Lonza (Walkersville, Md.) and expanded in Mesenchymal Stem Cell Growth Media (Lonza). Cells between passage 3 and 6 were used for the experiments.
Each compound was dissolved in DMSO as a 10 mM stock and used to prepare compound source plates. Serial dilution (1:3, 6-point dose-response curves from 2700 nM to 10 nM) and compound transfer was performed using the ECHO 550 (Labcyte, Sunnyvale, Calif.) into 96-well clear bottom assay plates (Greiner Bio-One) with appropriate DMSO backfill for a final DMSO concentration of 0.03%. hMSCs were plated at 20,000 cells/well in 250 μL/well Incomplete Chondrogenic Induction Medium (Lonza; DMEM, dexamethasone, ascorbate, insulin-transferrin-selenium [ITS supplement], gentamycin-amphotericin [GA-1000], sodium pyruvate, proline and L-glutamine). TGF-β3 (10 ng/mL) was used as a positive control for differentiation while negative control wells were treated with 75 nL DMSO for normalization and calculating EC50 values. Cells were incubated at 37° C. and 5% CO2 for 6 days. To image chondrogenic nodules, the cells were fixed using 4% formaldehyde (Electron Microscopy Sciences), and stained with 2 μg/mL Rhodamine B (Sigma-Aldrich) and 20 μM Nile Red (Sigma-Aldrich) [Johnson K., et. al, A Stem Cell-Based Approach to Cartilage Repair, Science, (2012), 336(6082), 717-721]. The nodules imaged (4 images per well at 4× magnification) by excitation at 531 nm and emission at 625 nm and quantified using the CellInsight CX5 (Thermo Scientific). Number of nodules in each well was normalized to the average of 3 DMSO treated wells on the same plate using Excel (Microsoft Inc.). The normalized averages (fold change over DMSO) of 3 replicate wells for each compound concentration were calculated. Due to solubility limitations of some of the compounds, curve fitting was incomplete leading to inaccurate EC50 determinations.
Using TGF-β3 as a positive control, the concentration of representative compounds required to induce 50% levels of chondrogenesis is reported. In addition, the maximum activity of each compound and the respective dose that each compound reached maximum chondrogenesis activity is reported.

| SMILES | inhibition at 10 µM [1] [%] | EC50 [1] [nM] | Emax [2] [%] | EC50 [2] [nM] |
| --- | --- | --- | --- | --- |
| c1cncc(-c2ccnc3[nH]c(-c4n[nH]c5ncc(-c6cncc(CN7CCCCC7)c6)cc45)cc23)c1 [Compound 99, 5-(5-(Piperidin-1-ylmethyl)pyridin-3-yl)-3-(4-(pyridin-3-yl)-1H-pyrrolo[2,3-b]pyridin-2-yl)-1H-pyrazolo[3,4-b]pyridine] | 26 | > 10000 | 44 |  |
| CN(C)Cc1cncc(-c2cnc3[nH]nc(-c4cc5c(N6CCCCC6)ccnc5[nH]4)c3c2)c1 [Compound 181, N,N-Dimethyl-1-(5-(3-(4-(piperidin-1-yl)-1H-pyrrolo[2,3-b]pyridin-2-yl)-1H-pyrazolo[3,4-b]pyridin-5-yl)pyridin-3-yl)methanamine] | 38.8 | > 10000 | 46 |  |
| CC(C)(C)CC(=O)Nc1cncc(-c2cnc3[nH]nc(-c4cc5c(-c6ccncc6)ccnc5[nH]4)c3c2)c1 [Compound 128, 3,3-Dimethyl-N-(5-(3-(4-(pyridin-4-yl)-1H-pyrrolo[2,3-b]pyridin-2-yl)-1H-pyrazolo[3,4-b]pyridin-5-yl)pyridin-3-yl)butanamide] | 0 | > 10000 | 79 | 300 |
| Nc1cncc(-c2cnc3[nH]nc(-c4cc5c(-c6ccncc6)ccnc5[nH]4)c3c2)c1 [Compound 115, 5-(3-(4-(Pyridin-4-yl)-1H-pyrrolo[2,3-b]pyridin-2-yl)-1H-pyrazolo[3,4-b]pyridin-5-yl)pyridin-3-amine] | 5.6 | > 10000 | 12 |  |
| c1cncc(-c2cnc3[nH]nc(-c4cc5cccnc5[nH]4)c3c2)c1 [Compound 256, 5-(Pyridin-3-yl)-3-(1H-pyrrolo[2,3-b]pyridin-2-yl)-1H-pyrazolo[3,4-b]pyridine] |  | 1060 | 11 |  |
| Fc1ccc(-c2ccnc3[nH]c(-c4n[nH]c5ncc(-c6cncc(CN7CCCC7)c6)cc45)cc23)cc1 [Compound 42, 3-(4-(4-Fluorophenyl)-1H-pyrrolo[2,3-b]pyridin-2-yl)-5-(5-(pyrrolidin-1-ylmethyl)pyridin-3-yl)-1H-pyrazolo[3,4-b]pyridine] | 26 | > 10000 | 25 |  |
| CN(C)c1cncc(-c2cnc3[nH]nc(-c4cc5c(-c6ccccc6F)ccnc5[nH]4)c3c2)c1 [Compound 63, 5-(3-(4-(2-Fluorophenyl)-1H-pyrrolo[2,3-b]pyridin-2-yl)-1H-pyrazolo[3,4-b]pyridin-5-yl)-N,N-dimethylpyridin-3-amine] | 4 | > 10000 | 35 |  |
| CN(C)Cc1cncc(-c2cnc3[nH]nc(-c4cc5c(-c6cccc(F)c6)ccnc5[nH]4)c3c2)c1 [Compound 13, 1-(5-(3-(4-(3-Fluorophenyl)-1H-pyrrolo[2,3-b]pyridin-2-yl)-1H-pyrazolo [3,4-b]pyridin-5-yl)pyridin-3-yl)-N,N-dimethylmethanamine] | 22.6 | > 10000 | 102 | 100 |
| Cn1cc(-c2cnc3[nH]nc(-c4cc5cccnc5[nH]4)c3c2)cn1 [Compound 652, 5-(1-Methyl-1H-pyrazol-4-yl)-3-(1H-pyrrolo[2,3-b]pyridin-2-yl)-1H-pyrazolo[3,4-b]pyridine] | 23.4 | > 10000 | 52 | 300 |
| CCCCC(=O)Nc1cncc(-c2cnc3[nH]nc(-c4cc5cccnc5[nH]4)c3c2)c1 [Compound 271, N-(5-(3-(1H-Pyrrolo[2,3-b]pyridin-2-yl)-1H-pyrazolo[3,4-b]pyridin-5-yl)pyridin-3-yl)pentanamide] | 6.5 | > 10000 | 260 | 900 |
| CCCCC(=O)Nc1cncc(-c2cnc3[nH]nc(-c4cc5c(-c6ccccc6F)ccnc5[nH]4)c3c2)c1 [Compound 75, N-(5-(3-(4-(2-Fluorophenyl)-1H-pyrrolo[2,3-b]pyridin-2-yl)-1H-pyrazolo [3,4-b]pyridin-5-yl)pyridin-3-yl)pentanamide] | 2.1 | > 10000 | 82 | 30 |
| CCNCc1cncc(-c2cnc3[nH]nc(-c4cc5c(-c6cccnc6)ccnc5[nH]4)c3c2)c1 [Compound 90, N-((5-(3-(4-(Pyridin-3-yl)-1H-pyrrolo[2,3-b]pyridin-2-yl)-1H-pyrazolo[3,4-b]pyridin-5-yl)pyridin-3-yl)methyl)ethanamine] | 8.2 | > 10000 | 92 | 10 |
| CC(C)CC(=O)Nc1cncc(-c2cnc3[nH]nc(-c4cc5c(-c6cccnc6)ccnc5[nH]4)c3c2)c1 [Compound 86, 3-Methyl-N-(5-(3-(4-(pyridin-3-yl)-1H-pyrrolo[2,3-b]pyridin-2-yl)-1H-pyrazolo[3,4-b]pyridin-5-yl)pyridin-3-yl)butanamide] | 2.7 | > 10000 | 44 |  |
| O=C(Nc1cncc(-c2cnc3[nH]nc(-c4cc5cccnc5[nH]4)c3c2)c1)C1CCCCC1 [Compound 275, N-(5-(3-(1H-Pyrrolo[2,3-b]pyridin-2-yl)-1H-pyrazolo[3,4-b]pyridin-5-yl)pyridin-3-yl)cyclohexanecarboxamide] |  | 1260 | 28 |  |
| O=C(Nc1cncc(-c2cnc3[nH]nc(-c4cc5cccnc5[nH]4)c3c2)c1)c1ccccc1 [Compound 263, N-(5-(3-(1H-Pyrrolo[2,3-b]pyridin-2-yl)-1H-pyrazolo[3,4-b]pyridin-5-yl)pyridin-3-yl)benzamide] | 29.7 | > 10000 | 22 |  |
| CCNCc1cncc(-c2cnc3[nH]nc(-c4cc5c(-c6ccccc6F)ccnc5[nH]4)c3c2)c1 [Compound 62, N-((5-(3-(4-(2-Fluorophenyl)-1H-pyrrolo[2,3-b]pyridin-2-yl)-1H-pyrazolo [3,4-b]pyridin-5-yl)pyridin-3-yl)methyl)ethanamine] | 0 | > 10000 | 55 | 100 |
| c1ccc(CNCc2cncc(-c3cnc4[nH]nc(-c5cc6c(-c7ccncc7)ccnc6[nH]5)c4c3)c2)cc1 [Compound 136, N-Benzyl-1-(5-(3-(4-(pyridin-4-yl)-1H-pyrrolo[2,3-b]pyridin-2-yl)-1H-pyrazolo[3,4-b]pyridin-5-yl)pyridin-3-yl)methanamine] | 0 | > 10000 | 93 | 2700 |
| Nc1cncc(-c2cnc3[nH]nc(-c4cc5c(-c6ccccc6F)ccnc5[nH]4)c3c2)c1 [Compound 59, 5-(3-(4-(2-Fluorophenyl)-1H-pyrrolo[2,3-b]pyridin-2-yl)-1H-pyrazolo[3,4-b]pyridin-5-yl)pyridin-3-amine] | 48.3 | > 10000 | 28 |  |
| CC(C)(C)CC(=O)Nc1cncc(-c2cnc3[nH]nc(-c4cc5cccnc5[nH]4)c3c2)c1 [Compound 268, N-(5-(3-(1H-Pyrrolo[2,3-b]pyridin-2-yl)-1H-pyrazolo[3,4-b]pyridin-5-yl)pyridin-3-yl)-3,3-dimethylbutanamide] |  | 860 | 23 |  |
| CN(C)Cc1cncc(-c2cnc3[nH]nc(-c4cc5c(-c6cccnc6)ccnc5[nH]4)c3c2)c1 [Compound 97, N,N-Dimethyl-1-(5-(3-(4-(pyridin-3-yl)-1H-pyrrolo[2,3-b]pyridin-2-yl)-1H-pyrazolo[3,4-b]pyridin-5-yl)pyridin-3-yl)methanamine] | 0 | > 10000 | 49 |  |
| CCC(=O)Nc1cncc(-c2cnc3[nH]nc(-c4cc5c(N6CCCCC6)ccnc5[nH]4)c3c2)c1 [Compound 169, N-(5-(3-(4-(Piperidin-1-yl)-1H-pyrrolo[2,3-b]pyridin-2-yl)-1H-pyrazolo[3,4-b]pyridin-5-yl)pyridin-3-yl)propionamide] |  | 861 | 183 | 900 |
